pIC50: −log10 of the molar value.

In patent publication US20230339970A1, “CASEIN KINASE 1 DELTA MODULATORS” (priority 2020, published 2023) one finds IC50 data, which are given here for ten compounds.

For test [1], the target named is T1, human recombinant GST cleaved CSNK1D (Homo sapiens, UniProt P48730).
T1 construct: GST (cleaved yes); purchased University of Dundee clone DU 19064
Briefly: Purified Enzyme Assay (ADP-Glo CSNK1D Kinase Assay). The format is biochemical. Particulars: 2 nM CSNK1D; peptide substrate 150 μM; ATP 20 μM; 45 minutes at room temperature. The gist of the method:
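GST-cleaved human recombinant CSNK1D phosphorylates peptide PLSRTL-pS-VASLPGL with ATP; compounds added in dose-response, 45 min at room temperature. ADP formed measured by ADP-Glo luminescence and converted to percent activity.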

For a further test, the target named is T2, human CSNK1D (Homo sapiens, UniProt P48730).
T2 construct: expressed in transfected cells
Briefly: Whole Cell nBRET CSNK1D Binding Assay. Particulars: living CHO cells stably expressing human CSNK1D tagged with nanoluciferase; NanoBret tracer 130 nM; 2 hours at 37 C.

T1 sequence (P48730 whole entry): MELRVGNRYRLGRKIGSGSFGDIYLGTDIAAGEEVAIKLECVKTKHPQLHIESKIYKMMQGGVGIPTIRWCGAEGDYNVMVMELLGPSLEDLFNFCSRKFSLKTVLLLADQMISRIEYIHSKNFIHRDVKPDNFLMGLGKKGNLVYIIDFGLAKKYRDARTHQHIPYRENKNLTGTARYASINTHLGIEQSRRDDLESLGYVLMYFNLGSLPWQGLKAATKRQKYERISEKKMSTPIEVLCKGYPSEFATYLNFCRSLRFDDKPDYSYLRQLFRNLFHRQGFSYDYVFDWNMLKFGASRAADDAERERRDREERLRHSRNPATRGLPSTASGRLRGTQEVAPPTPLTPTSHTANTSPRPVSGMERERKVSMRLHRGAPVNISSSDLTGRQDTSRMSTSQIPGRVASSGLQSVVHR
T2 sequence (P48730 whole entry): as above

Consider `Cc1nc2[nH]ncc2c(-c2c(-c3ccc(F)cn3)nn3c2COC(C)(C)C3)c1F` [Example 157, 3-(5-Fluoro-6-methyl-1H-pyrazolo[3,4-b]pyridin-4-yl)-2-(5-fluoro-2-pyridyl)-6,6-dimethyl-4,7-dihydropyrazolo[5,1-c][1,4]oxazine], for which the negative logarithm of the IC50 (pIC50) in test [1] was 8.10; at human CSNK1D, 7.14.
On to `Cc1cc(-c2c(-c3ccc(F)cn3)nn3c2OCC2(CC2)C3)c2cn[nH]c2n1` [Example 462, 2′-(5-Fluoropyridin-2-yl)-3′-(6-methyl-1H-pyrazolo[3,4-b]pyridin-4-yl)-5′H,7′H-spiro[cyclopropane-1,6′-pyrazolo[5,1-b][1,3]oxazine]], for which the negative logarithm of the IC50 (pIC50) in test [1] was 9.00; at human CSNK1D, 7.70.
As to `Cc1nc(-c2c(-c3ccc(F)cc3)nn3c2COC(C(F)(F)F)C3)c2cn[nH]c2n1` (single isomer, unassigned) [Example 376, (*R)-2-(4-Fluorophenyl)-3-(6-methyl-1H-pyrazolo[3,4-d]pyrimidin-4-yl)-6-(trifluoromethyl)-6,7-dihydro-4H-pyrazolo[5,1-c][1,4]oxazine], the pIC50 in test [1] is 8.40; on human CSNK1D it was 7.13.
The corresponding values for `Fc1ccc(-c2nn3c(c2-c2ccnc4[nH]ncc24)C[C@@H]2C[C@@H]23)nc1` [Example 26, (4aS,5aS)-2-(5-Fluoropyridin-2-yl)-3-(1H-pyrazolo[3,4-b]pyridin-4-yl)-4,4a,5,5a-tetrahydrocyclopropa[4,5]pyrrolo[1,2-b]pyrazole] are 8.40 and 7.49.
In the case of `Cc1n[nH]c2nccc(-c3c(-c4ccc(F)cn4)nn4c3CO[C@@](C)(C(F)(F)F)C4)c12` (single isomer, unassigned) [Example 418, (*R)-2-(5-Fluoropyridin-2-yl)-6-methyl-3-(3-methyl-1H-pyrazolo[3,4-b]pyridin-4-yl)-6-(trifluoromethyl)-6,7-dihydro-4H-pyrazolo[5,1-c][1,4]oxazine], the negative logarithm of the IC50 (pIC50) in test [1] was 7.80; at human CSNK1D, 6.91.
With `FCC1Cn2nc(-c3ccc(F)cc3)c(-c3ccnc4[nH]ncc34)c2CO1` (single isomer, unassigned) [Example 105, (*R)-(Fluoromethyl)-2-(4-fluorophenyl)-3-(1H-pyrazolo[3,4-b]pyridin-4-yl)-6,7-dihydro-4H-pyrazolo[5,1-c][1,4]oxazine], the pIC50 in test [1] is 8.40; on human CSNK1D, 7.34.
As for `CC1n2nc(-c3ccc(F)cn3)c(-c3ccnc4[nH]ncc34)c2COC1(C)C` (single isomer, unassigned) [Example 174, (*S)-2-(5-Fluoropyridin-2-yl)-6,6,7-trimethyl-3-(1H-pyrazolo[3,4-b]pyridin-4-yl)-6,7-dihydro-4H-pyrazolo[5,1-c][1,4]oxazine], the pIC50 in test [1] is 8.10; at human CSNK1D, 6.94.
On to `CC1CCCc2c(-c3ccnc4[nH]ncc34)c(-c3ccc(F)cc3)nn21` (single isomer, unassigned) [Example 39, (*R)-4-[2-(4-Fluorophenyl)-7-methyl-4,5,6,7-tetrahydropyrazolo[1,5-a]pyridin-3-yl]-1H-pyrazolo[3,4-b]pyridine], for which the negative-log IC50 (pIC50) in test [1] was 8.40; on human CSNK1D it was 7.41.
In the case of `Fc1cncc(-c2nn3c(c2-c2ccnc4[nH]ncc24)COCC3)c1` [Example 76, 2-(5-Fluoro-3-pyridyl)-3-(1H-pyrazolo[3,4-b]pyridin-4-yl)-6,7-dihydro-4H-pyrazolo[5,1-c][1,4]oxazine], the negative-log IC50 (pIC50) in test [1] is 6.77; on human CSNK1D, 5.53.
The matching figures for `COC1(C)COCc2c(-c3ccnc4[nH]ncc34)c(-c3ccc(F)cn3)nn2C1` (single isomer, unassigned) [Example 485, (*S)-2-(5-Fluoropyridin-2-yl)-7-methoxy-7-methyl-3-(1H-pyrazolo[3,4-b]pyridin-4-yl)-7,8-dihydro-4H,6H-pyrazolo[5,1-c][1,4]oxazepine]: 6.43 and 5.09.
